Experimental data taken from US11866424B2, “Aggregation-induced emission luminogens for photodynamic therapy” (The Hong Kong University of Science and Technology, priority 2020, dated 2024).

Experiments:
[1] = ROS generation measurement with ABDA indicator under white light; settings: 1 μM sample, 10 μM ABDA, DMSO/water 1/100, white light 4.2 mW·cm^−2, up to 6 min; compared with Ce6 and Rose Bengal
Protocol: 9,10-Anthracenediyl-bis(methylene)dimalonic acid (ABDA) was employed to detect ROS generation of TFPy, TFVP, TPE-TFPy, and two commercial standard photosensitizer, Rose Bengal, and Ce6 upon light irradiation. The absorbance of each sample (1 μM) was firstly set as blank. Then, 10 μM of ABDA was mixed to each sample (DMSO/water (v:v)=1/100) in a dark room, and the absorbance of sample was measured at once. The sample mixture was then irradiated under white light (4.2 mW/cm^−2) at intervals of 1 min until 6 min. The absorption of ABDA at 378 nm was recorded at various irradiation times to obtain the decay rate of photosensitizing process. The absorbance change of ABDA alone in 6 min light irradiation time was also measured as control.
Preliminary study was conducted by evaluating capability of ROS generation of three AIEgens. 9,10-Anthracenediyl-bis-(methylene)-dimalonic acid (ABDA) whose absorption will decrease once oxidized by ROS was utilized as an indicator. […] Ce6 and Rose Bangel, two well-known commercially available standard photosensitizers, were engaged as comparison.

[2] = UV-Vis and photoluminescence spectroscopy (optical properties, AIE characteristics); format: physicochemical; settings: for λabs: Absorption maximum in DMSO (TFPy and TPE-TFPy) and H2O (TFVP) solution, 10 μM; for λem (Soln.): Emission maximum in DMSO (TFPy and TPE-TFPy) and H2O (TFVP) solution at 10 μM; for ΦF (Aggr.) / ΦF (Soln.) / ΦF (Solid.): Fluorescence quantum yield; for ΦF (Aggr.): aggregation state in 5% DMSO + 95% Toluene or 5% H2O + 95% THF (TFVP); for ΦF (Soln.): calibrated integrating sphere, DMSO (TFPy, TPE-TFPy) or H2O (TFVP) solution; for ΦF (Solid.) / stokes shifts / λem (Solid.): solid state; for λem (Aggr.): aggregation state in 5% DMSO + 95% Toluene (TFPy and TPE-TFPy) or 5% H2O + 95% THF (TFVP); for Iaggr,max/Isoln: emission intensity in 5% DMSO + 95% Toluene (TFPy, TPE-TFPy) or 5% H2O + 95% THF (TFVP) relative to solution; for ε: solution
Text: All the chemicals were purchased from Meryer, J&K, or Sigma as received without further purification. Superdry (99.9%) DCM and methanol with molecular sieves were purchased from J&K Scientific. Toluene was distilled from sodium and benzophenone under nitrogen prior to use. Phosphate buffered saline (PBS) was purchased from Thermo Fisher Scientific. ABDA, Ce6 and Rose Bengal were purchased from Sigma-Aldrich and used as received. Cell culture medium and fetal bovine serum (FBS) were purchased from GIBCO (Gran Island, NY, USA). Mitotracker Green, CellMask Green, and LysoTracker Green were purchased from ThermoFisherScientific. 1H NMR (400 MHz), 13C NMR (100 MHz) spectra were recorded on a Bruker ARX 400 Spectrometer with CDCl3 or d6-DMSO as deuterated solvent. High resolution mass spectra (HRMS) were performed on a Finnigan MAT TAQ 7000 mass spectrometer system operating in matrix-assisted laser desorption/ionization time of flight mass spectrometry (MALDI-TOF) mode. UV-Vis absorption and fluorescence spectra were recorded with Milton Roy Spectronic 3000 array spectrophotometer. Fluorescence images of AIEgens in solution and aggregation state were collected on an Olympus BX 41 fluorescence microscope. Cellular fluorescence images were taken using a Zeiss laser scanning confocal microscope (LSM7 DUO) and analyzed using ZEN 2009 software (Carl Zeiss). Theoretical study was carried out on 6-311G* basis set in Gaussian09 using density functional theory (DFT) approximated by ωB97X-D.
The photophysical properties of TFPy, TFVP and TPE-TFPy were characterized by UV-Vis and photoluminescence spectroscopies at the concentration of 10 μM as shown in FIG. 2 and summarized in Table 1. […] Due to different solubility behavior, the AIE characteristics of TFPy and TPE-TFPy were investigated in DMSO/toluene mixture with different toluene fractions, whereas TFVP was measured in H2O/THF mixture (FIGS. 2C and 2D, FIG. 8). Taking TFVP as an example, TFVP was barely emissive when fully dissolved in water. Upon increasing THF fraction, fluorescence emission intensity got boosted accordingly with a 218-time increment when THF fraction reached 95%. […] In addition, upon the increase of THF or toluene as poor solvent, the emission wavelengths of three AIEgens were blue-shifted owing to the decrease of solvent polarity, manifesting TICT attributes, which is again ascribed to their D-A feature.

HeLa cell = assay: MTT cytotoxicity / PDT assay, HeLa cell line; format: cell-based; settings: 5 μM, white light 20 min (20 mW/cm^2)
Protocol: 3-(4,5-Dimethylthiazol-2-yl)-2,5-diphenyltetrazolium bromide (MTT) assay was utilized to quantitatively measure the cytotoxicity of TFPy, TFVP, TPE-TFPy, and three in one group based on both Hela cell line and 4T1 cell line. The three in one group was consist of one third concentration of TFPy, TFVP, and TPE-TFPY. Both cancer cell lines were seeded in DMEM media in a 96-well round-bottom microplate with a density of 1×10^4 cells per well. The AIEgens (TFPy, TFVP, TPE-TFPy, and three in one) were added at different concentrations of 0, 0.25, 0.5, 1, 2.5, and 5 μM after replacing the medium, and was incubated with different cell lines respectively for 20 min, followed by irradiation with white light for 20 min (20 mW/cm^2); and another array of plates with cells were kept in the dark as control. After 24 h incubation, 10 uL MTT (5 mg/mL in PBS) was added into each well. 4 hours later, DMSO was added into wells to dissolve the precipitated formazan. Finally, the absorption of each well at 595 nm was recorded via a plate reader (Perkin-Elmer Victor3™). Each trial was performed with 6 wells in parallel.
Cytotoxicity of photosensitizer is a non-negligible factor to take into consideration. […] Consequently, quantitative evaluation of PDT effect was applied on both HeLa Cell and 4T1 cell line through standard methylthiazolyldiphenyltetrazolium bromide (MTT) assay. Each AIEgen and an experimental group named “three in one” were evaluated. The “three in one” group was comprised of one third concentration of each AIEgen (⅓ TFPy, ⅓ TFVP, and ⅓ TPE-TFPy) to assure the overall concentration as same as other experimental groups. […] However, upon irradiation with light for 20 min, HeLa cell suffered severe viability loss with only 10% remained when the “three in one” group was at a concentration of 2.5 μM (FIG. 5C).

4T1 cells = assay: 4T1 cell imaging / co-localization with commercial organelle probes; format: cell-based; settings: for organelle towards which strong affinity is exhibited: 4T1 cell line; for Pearson's coefficient (co-localization): 4T1 cells, co-staining with commercial probes
Protocol: Similar co-staining procedure for Hela cell was applied on 4T1 cell. The calculated Pearson's coefficient was 0.90 for TFPy, 0.91 for TFVP, and 0.90 for TPE-TFPy.
Motivated by the excellent targetability and specificity of three diverse organelle-targeting AIEgens, photostability was also carefully investigated as it is an essential parameter to evaluate a fluorescence imaging agent. Photostability assessment was carried out by continuous irradiation and sequential scanning with confocal microscope. […] With HeLa cell imaging and photostability data in hand, additional cellular uptake experiment using 4T1 cell line was performed as preliminary study for in vivo experiment.

HeLa cells = assay: HeLa cell imaging / co-localization with commercial organelle probes (CLSM); format: cell-based; settings: for subcellular organelle visualized after incubation: CLSM, excitation 488 nm; for Pearson's coefficient (co-localization efficiency): co-staining with MitoTracker Green (TFPy), CellMask Green (TFVP), LysoTracker Green (TPE-TFPy)
Protocol: Hela cells were seeded and cultured at 37° C. in a 35 mm glass-bottomed dish. After incubation with TFPy (1 μM), TFVP (5 μM), or TPE-TFPy (2 μM), the cells were washed with PBS three times and subjected to imaging analysis using a Zeiss Laser Scanning Confocal Microscope. All of three AIEgens can be excited with 488 nm filter and the emission filter was 570-740 nm. For co-staining assay, the TFPy, TFVP, and TPE-TFPy loaded Hela cells were subjected to incubation with MitoTracker Green, CellMask Green, and LysoTracker Green, respectively. Hoechst 33258 (5 μM) was also utilized to stain nuclear DNA to assist visualizing. Afterwards, the cells were washed with PBS and then observed with CLSM. The cells were imaged using appropriate excitation and emission filters for each dye. The co-localization efficiency was analyzed with Olympus FV10-ASW software, in which the calculated Pearson's coefficient was 0.90 for TFPy, 0.91 for TFVP, and 0.90 for TPE-TFPy. A stock solution of three AIEgens comprising of 1 μM TFPy, 10 μM TFVP, and 1 μM TPE-TFPy was utilized to incubate with Hela cells, followed by imaging analysis excited with 488 nm filter.
In vitro cellular imaging was carried out to evaluate their subcellular organelle targeting property by confocal laser scanning microscopy (CLSM) using HeLa cell as model cell line. Thanks to the analogous maximum absorption of three AIEgens, fluorescence images can be acquired simultaneously using the same excitation at 488 nm. […] Besides, when HeLa cells were cultured with these three AIEgens simultaneously, all of mitochondria, cell membrane and lysosome were highly emissive (FIG. 3D). It was inferred that the mitochondria-staining behavior of TFPy could be attributed to its high efficiency of electrophoretic transmembrane migration, as well as appropriate binding ability between positively charged pyridinium moiety and the negatively charged interior of the transmembrane potential of mitochondria. The low permeability coefficients resulted from the quite high free energy barrier of TFVP at membrane center could lead to its specific accumulation. In the case of TPE-TFPy, it tends to form nano-sized aggregates in culture media due to the high hydrophobicity, and the in-situ generated aggregates can internalize into lysosome of HeLa cells through endocytosis and specifically light up lysosome upon photoexcitation.

Row | λabs [2] [nm] | λem (Soln.) [2] [nm] | ΦF (Aggr.) [2] [%] | ΦF (Soln.) [2] [%] | ΦF (Solid.) [2] [%] | λem (Aggr.) [2] [nm] | Iaggr,max/Isoln [2] | stokes shifts [2] | λem (Solid.) [2] [nm] | ε [2] [M⁻¹ cm⁻¹] | SMILES | ROS generation efficacy (decrease of ABDA absorption at 378 nm) [1] | cell viability upon light irradiation (HeLa cell) [%] | organelle towards which strong affinity is exhibited (4T1 cells) | Pearson's coefficient (co-localization) (4T1 cells) | subcellular organelle visualized after incubation (HeLa cells) | Pearson's coefficient (co-localization efficiency) (HeLa cells)
1 | 490 | 672 | 4.2 | 0.5 | 1.1 | 664 | 26.4 | ca. 200 nm | 683 | 31000 | C[n+]1ccc(C=Cc2ccc(-c3ccc(N(c4ccccc4)c4ccc(C(=C(c5ccccc5)c5ccccc5)c5ccccc5)cc4)cc3)o2)cc1.F[P-](F)(F)(F)(F)F [TPE-TFPy] | much higher than Rose Bangel | 15 | lysosome | 0.90 | lyso some | 0.90
2 | 492 | 675 | 5 | 0.4 | 0.6 | 672 | 218 | ca. 200 nm | 690 | 28000 | C[N+](C)(C)CCC[n+]1ccc(C=Cc2ccc(-c3ccc(N(c4ccccc4)c4ccccc4)cc3)o2)cc1.[Br-].[Br-] [TFVP] | better than Ce6, but not as efficient as Rose B angel | 53 | cellular membrane | 0.91 | cell membrane | 0.91
3 | 485 | 686 | 10 | 0.4 | 0.5 | 660 | 12.6 | ca. 200 nm | 672 | 27000 | C[n+]1ccc(C=Cc2ccc(-c3ccc(N(c4ccccc4)c4ccccc4)cc3)o2)cc1.F[P-](F)(F)(F)(F)F [TFPy] | better than Ce6, but not as efficient as Rose B angel | 58 | mitochondria | 0.90 | mitochondria | 0.90
